Experimental data taken from US20260200983A1, “USE OF GALR2 AGONISTS TO TREAT GASTROINTESTINAL AND/OR ENDOCRINE DISORDERS” (priority 2022, published 2026).
Non-standard residues stand in square brackets, D forms with d. Residues, ends and D or L forms follow the SMILES beside them. Primed or numbered codes have the meaning given here. No end group written: not given here. PEG2′ = not defined here

Legend:
OIC mice = test: Colonic transit time (latency to glass bead expulsion) in opioid-induced constipation (OIC) mouse model; assay type: in vivo; conditions: 10 mg/kg intraperitoneally, single administration at day 7, positive control (FIG. 5)
Protocol: FIG. 4 provides the overall experimental design in assessing the effects of GALR2 agonists described herein in an opioid-induced constipation (OIC) mouse model. The upward arrows (seven total) represent the daily administration of the GALR2 agonist. The GALR2 agonist that was administered to the relevant groups was pegylated. Control animals received either a vehicle control (negative control) or bisacodyl (positive control). Animals that received a single administration (i.e., at day 7) of naloxone methiodide were also used as a positive control. At 10 minutes post last administration, each of the animals received an administration of morphine (3 mg/kg; subcutaneously). […] Colonic transit time was assessed by measuring the latency to glass bead expulsion by the animals.
FIGS. 9A and 9B show the effect of dosing schedule and administration route on GALR2 agonist-mediated regulation of colonic transit time in OIC mice. […] Colonic transit time was assessed by measuring the latency to glass bead expulsion by the animals. […]
To assess whether the GALR2 agonists described herein could be useful in treating opioid-induced constipation, an OIC mouse model was used. […] Then, a glass bead was rectally inserted, and colonic transit time was assessed by measuring the latency to glass bead expulsion by the animals. […]

hGALR2 = biological target: T1, hGALR2 (Homo sapiens, UniProt O43603); test: SRE luciferase activity in mGqi-hGALR2-SRE Luc expressing cell lines; assay type: cell-based; conditions: read-out: logEC50 (mean ± SEM) (converted)
T1 construct: expressed in transfected cells
T1 sequence (O43603 1-387): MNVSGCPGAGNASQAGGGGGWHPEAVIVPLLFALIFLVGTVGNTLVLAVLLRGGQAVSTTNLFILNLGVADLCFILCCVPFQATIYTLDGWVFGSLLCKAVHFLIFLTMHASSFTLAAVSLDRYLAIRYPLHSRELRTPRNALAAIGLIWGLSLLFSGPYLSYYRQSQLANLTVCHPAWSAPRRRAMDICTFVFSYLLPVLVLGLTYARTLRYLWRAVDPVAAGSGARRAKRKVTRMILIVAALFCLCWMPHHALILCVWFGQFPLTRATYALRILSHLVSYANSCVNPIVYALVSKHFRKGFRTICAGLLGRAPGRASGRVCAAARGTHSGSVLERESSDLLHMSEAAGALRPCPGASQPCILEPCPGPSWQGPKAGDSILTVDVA
Protocol: FIG. 11 provides a comparison of the in vitro potency of three different GALR2 agonist peptides with certain amino acid substitutions at the 4th amino acid position. Specifically, the GALR2 agonist peptides were as follows: (1) nWTaNAALYLFGPq-NH2 (D-alanine substitution; triangle), (2) PEG2-NWTeNAALYLFGPq-NH2 (D-glutamic acid; filled circle), and (3) PEG2-NWTrNAALYLFGPq-NH2 (D-arginine; open circle). Potency of the GALR2 agonists was assessed by measuring SRE luciferase activity in mGqi-hGALR2-SRE Luc expressing cell lines treated with the peptides.
In addition to solubility (described above in Example 8), the in vitro potency of the three GALR2 agonist peptides described in Example 7 was next assessed. Specifically, mGqi-hGALR2-SRE Luc expressing cell lines were treated with the different peptides and SRE luciferase activity was measured (as a measure of intracellular activity mediated by the GALR2 agonist peptides).

[1] = biological target: T2, human galanin receptor type 2 (GALR2) (human, UniProt O43603 1-387); test: cell-based or functional assay
T2 sequence: T1 sequence (O43603 1-387)

Molecule: C=CC[N+]1(C)CC[C@]23c4c5ccc(O)c4O[C@H]2C(=O)CC[C@@]3(O)[C@H]1C5 (stereo partly drawn) [naloxone methiodide, reference compound]
- colonic transit time (OIC mice): decrease in colonic transit time

Molecule: CC(C)C[C@H](NC(=O)[C@H](C)NC(=O)[C@H](C)NC(=O)[C@H](CC(N)=O)NC(=O)[C@@H](C)NC(=O)[C@@H](NC(=O)[C@H](Cc1c[nH]c2ccccc12)NC(=O)[C@H](N)CC(N)=O)[C@@H](C)O)C(=O)N[C@@H](Cc1ccc(O)cc1)C(=O)N[C@@H](CC(C)C)C(=O)N[C@@H](Cc1ccccc1)C(=O)NCC(=O)N1CCC[C@H]1C(=O)N[C@H](CCC(N)=O)C(N)=O [D-Alanine (SEQ ID NO: 87), nWTaNAALYLFGPq-NH2] (HELM PEPTIDE1{[dN].W.T.[dA].N.A.A.L.Y.L.F.G.P.[dQ].[am]}$$$$V2.0)
- EC50 (hGALR2): 44.7 nM

Molecule: [PEG2′]NWT[dR]NAALYLFGP[dQ]-NH2 [PEG2-NWTrNAALYLFGPq-NH2 ([PEG-dR4-dQ14]-GALR2 Agonist, SEQ ID NO: 89)]
- EC50 fold change against the D-alanine peptide, SRE luciferase activity [1]: ~3.5 fold
